Assay results reported in patent publication US20160178584A1, “METHODS FOR DIAGNOSING AND ASSESSING KIDNEY DISEASE” (THE REGENTS OF THE UNIVERSITY OF CALIFORNIA, priority 2010, published 2016).

Columns and labels:
[1] = test system: subjects with diabetic nephropathy; experiment: Urine metabolomics in subjects treated with pirfenidone; format: in vivo, human; details: second cohort of patients enrolled in a separate trial
Text: Twenty-four hour urine was collected from both control and D-CKD subjects. A composite quantitative urine organic acid estimation was done using the Agilent 5973 […] and Mass spectrometry. Seventy-six different organic acids were looked at per sample and the results were standardized per mmol of creatinine.
Based on this study, the basis for why pirfenidone benefited some patients and not others was unclear. Despite available clinical data and protein biomarker studies there was little understanding on how to dose and prescribe this drug in a future study. Urine metabolomics was performed in subjects enrolled in this study at baseline and at 6 months after enrollment. A panel of metabolites based on a specific ratio added predictive value to the outcome on the drug. […] Similar approaches can be employed with other clinical trials to identify which patients will respond to drug, which patients will not, and identify potential new mechanisms. Additionally, metabolite profiles could predict adverse events in patients that are ongoing or will develop in the future.

db/db mice = details: cited from earlier work
[2] = test system: subjects with diabetic nephropathy; experiment: Pirfenidone trial: adverse events and study non-completion; format: in vivo, human; details: for non-completion: Aortic dilation / non-completion: Cancer / non-completion: Dialysis / non-completion: Fatigue / non-completion: Gastrointestinal symptoms / non-completion: Heart failure / non-completion: Rash / non-completion: Urinary tract infection: number of subjects (%)
Description: (§1) Eligible subjects were randomly assigned to receive pirfenidone 1200 mg daily, pirfenidone 2400 mg daily, or placebo for 54 weeks. Subjects received two 400 mg capsules of pirfenidone three times, one capsule of pirfenidone and one capsule of placebo three times daily), or two capsules of placebo three times daily. […] If symptoms persisted, the dose was kept at the lowest tolerable dose (but not less than 50% of original dose) if the subject desired to continue in the protocol.
An analysis based on logistic regression models was conducted to determine whether this violates the assumption of missing completely at random (MCAR) 40. This included using baseline characteristics to predict dropout and using eGFR values at a particular visit to predict dropout at the next visit. The latter part of the logistic regression was fitted using generalized estimating equations (GEE) 41. All data analyses were conducted using R and STATA version 11.0 (College Station, Tex.)

[3] = test system: subjects with diabetic nephropathy; experiment: Pirfenidone trial, secondary outcomes: urine albumin/creatinine ratio and urine TGF-beta; format: in vivo, human
Description: (§2) The primary endpoint was eGFR change from baseline to end of study. Baseline eGFR was determined from two serum creatinine measurements within 3 weeks prior to starting study drug. End of study eGFR was determined from two serum creatinine measurements at week 52 and week 54, prior to stopping study medication. Serum creatinine was measured by the Jaffe method separately at each clinic site laboratory. eGFR was determined by the 4-variable Modification of Diet in Renal Disease Study equation 37. Secondary endpoints included the change in urine ACR and the change in urine TGF-[…]/urine creatinine.
(§3) Biomarkers were analyzed in plasma and urine from samples collected at both baseline visits and both end-of-study visits, with the two results averaged. Plasma biomarkers were measured by MesoScale Discovery (MSD) platform at the UCSD Clinical Translational Research Institute (CTRI) facility. The MSD platform uses electrochemiluminescence tags on specific antibodies that emit light when electrochemically stimulated. The specific blood biomarkers measured were interferon-y (IFNy), interleukin 1 (IL-1), tumor necrosis factor (TNF), soluble TNF receptor 1 (S TNF R1), YKL40 (also called chitinase like protein or human cartilage glycoprotein-39), brain natriuretic peptide (BNP), and TGF-beta1. Fibroblast growth factor 23 (FGF23) was measured by a C-terminal ELISA assay (Immutopics, San Clemente, Calif.). Urine biomarkers included urine TGF-beta1 (measured by Quantikine, R&D Biosystems, as previously described 29). Urine albumin was measured by nephelometry and urine creatinine was measured by the Jaffe method.
The pre-specified primary endpoint analysis was the eGFR change, compared between each pirfenidone treatment group with placebo group using the Student t-test. Secondary endpoints (ACR change and urine TGF-beta1 change[…]s were similarly evaluated. When one of the two visits was missing, a single observation was used. Due to missing data the assumption that the data points arose from an identical distribution (equal variance) was put in question. Therefore, in addition to the two-sample t-tests, we also performed permutation tests with 10,000 permutations of the treatment assignments, as well as an analysis of covariance (ANCOVA) 38 with iterated re-weighted least-squares (IWLS) 39 as confirmatory analyses. Data are presented as mean±SD for normally distributed variables, and medians and interquartile ranges for skewed variables.

[4] = test system: subjects with diabetic nephropathy; experiment: Randomized double-blind, placebo-controlled exploratory trial of pirfenidone: eGFR change (primary endpoint); format: in vivo, human; details: for eGFR Change, with imputation: 54 weeks, completers plus subjects who began dialysis, end-of-study eGFR imputed as 10 ml/min per 1.73 m2; for eGFR Change: over 54 weeks, 52 study completers, mean ± SD
Description: Pirfenidone is an orally-available anti-fibrotic agent that has shown efficacy in animal models of diabetic nephropathy and human focal segmental glomerulosclerosis. A randomized double-blind, placebo-controlled exploratory trial of pirfenidone was performed in subjects with diabetic nephropathy with elevated albuminura and reduced glomerular filtration rate (eGFR) (20-75 ml/min per 1.73 m^2). The pre-specified primary outcome was eGFR change after one year of therapy. 78 subjects were randomly allocated to placebo (n=27), pirfenidone 1200 mg/d (n=26), or pirfenidone 2400 mg/d (n=25). 52 subjects completed the study. During the course of the study, eGFR increased with pirfenidone 1200 mg/d [+3.3±8.5 ml/min per 1.73 m^2 (mean±SD)], whereas eGFR fell with placebo (−2.2±4.8 ml/min per 1.73 m^2, p<0.03 versus pirfenidone 1200 mg/d) and with pirfenidone 2400 mg/d (−1.9±6.7 ml/min per 1.73 m^2, P=0.25 versus placebo). Of the initial 77 subjects, 5 initiated hemodialysis during the study: 4 in the placebo group, 0 in the pirfenidone 1200 mg group and 1 in the pirfenidone 2400 mg group (P=0.25). Baseline serum albumin levels were statistically associated with eGFR improvement in the entire cohort (p=0.001) and in the pirfenidone 2400 group (+0.9 [95% CI 0.7 to 1.1], p=0.03).
The study protocol was approved by the institutional review boards of the participating centers and all patients provided written consent. Trial sites were Thomas Jefferson University, Philadelphia, Pa.; the Mayo Clinic, Rochester, Minn.; and the NIH Clinical Center, Bethesda, Md. At the pre-study evaluation, the potential study candidates provided a medical history and underwent a complete physical examination, including clinical laboratory determinations and the measurement of vital signs. Entry criteria included a history of type 1 or type 2 diabetes, eGFR 20-75 ml/min/1.73 m2, microalbuminuria or overt proteinuria, blood pressure <140/90 mm Hg on an a ACEi, ARB or the combination, if tolerated. Exclusion criteria included other causes of kidney disease, history of photosensitivity rash, and liver disease. A stratified block randomization scheme was used to maximize the balance of patients with type 1 and type 2 diabetes assigned to each treatment group, using randomization blocks of size 4.
as §1, §2
The pre-specified primary endpoint analysis was the eGFR change, compared between each pirfenidone treatment group with placebo group using the Student t-test. […]

[5] = test system: patients with advanced and treatment-refractory focal segmental sclerosis; details: cited from earlier work
[6] = test system: subjects with diabetic nephropathy; experiment: Pirfenidone trial: changes in plasma biomarkers of inflammation and fibrosis; format: in vivo, human; details: for Change in IFN gamma / Change in Plasma TGF Beta / Change in TNF α / Change in YKL40 / Change in BNP / Change in FGF23 / Change in IL1 / Change in S TNF R1: over 52 weeks; for Change in IFN gamma / Change in Plasma TGF Beta / Change in TNF α / Change in YKL40: mean ± SD; for Change in BNP / Change in FGF23 / Change in IL1 / Change in S TNF R1: median and IQR
Description: as §3
In exploratory analysis, linear regression was performed to evaluate associations between baseline eGFR as the dependent variable and each biomarker at baseline as the independent variable. Skewed variables were natural log transformed, and each biomarker was evaluated as “per SD greater” to facilitate comparisons of strengths of association. Biomarker change scores were calculated as (end-of-study value—baseline level). Analysis of variance (ANOVA) was used to determine if the change in biomarker levels differed by randomized treatment assignment. It was also whether baseline biomarker levels were associated with eGFR change using multivariable linear regression. These models were adjusted for the other biomarkers and for clinical factors that are well established markers of progressive diabetic nephropathy, including age, sex, race, SBP, DBP, baseline ACR, and baseline eGFR.

In the case of `Cc1ccc(=O)n(-c2ccccc2)c1` [pirfenidone], the “urine citrate with interventional treatment” value [1] is given as “showed an increase”, the albuminuria (db/db mice; diabetic db/db mouse) is given as “without lowering albuminuria” and the glomerulosclerosis (db/db mice; oral, after the onset of established diabetic kidney disease) is given as “effective in reducing glomerulosclerosis”. The “non-completion: Aortic dilation” value ([2]; 1200 mg (n = 26)) was 1 (4%), the “non-completion: Cancer” value ([2]; 1200 mg (n = 26)) was 0 (0%) and the “non-completion: Dialysis” value ([2]; 1200 mg (n = 26)) was 0 (0%). The “non-completion: Fatigue” value ([2]; 1200 mg (n = 26)) was 0 (0%), the “non-completion: Gastrointestinal symptoms” value ([2]; 1200 mg (n = 26)) was 3 (13%) and the “non-completion: Heart failure” value ([2]; 1200 mg (n = 26)) was 1 (4%). The “non-completion: Rash” value ([2]; 1200 mg (n = 26)) was 1 (4%), the “non-completion: Urinary tract infection” value ([2]; 1200 mg (n = 26)) was 0 (0%) and the “non-completion: Aortic dilation” value ([2]; 2400 mg (n = 25)) was 0 (0%). The “non-completion: Cancer” value ([2]; 2400 mg (n = 25)) was “One subject”, the “non-completion: Dialysis” value ([2]; 2400 mg (n = 25)) was 1 (4%) and the “non-completion: Fatigue” value ([2]; 2400 mg (n = 25)) was 3 (12%). For the same compound, the “non-completion: Gastrointestinal symptoms” value ([2]; 2400 mg (n = 25)) was 6 (25%), the “non-completion: Heart failure” value ([2]; 2400 mg (n = 25)) was 0 (0%) and the “non-completion: Rash” value ([2]; 2400 mg (n = 25)) was 1 (4%). For the same compound, the “non-completion: Urinary tract infection” value ([2]; 2400 mg (n = 25)) was 1 (4%), the “non-completion: Cancer” value ([2]; 2400 mg (n = 25), listed as Prifenidone) was 1 (4%) and the “incidence of gastrointestinal side effects and fatigue” value ([2]; pirfenidone groups compared to placebo) was “appeared to be dose related”. The “Non-Completers, n (%)” value ([2]; randomized to 1200) was 9 (35%), the “Non-Completers, n (%)” value ([2]; randomized to 2400) was 11 (44%) and the “change in urine albumin/creatinine ratio (ACR) from baseline to end of study” value ([3]; among study groups) was “no significant differences”. For the same compound, the albuminuria with treatment ([3]; in vivo) was “did not decrease”, the “urine TGF-beta levels, increase over 12 months” value ([3]; pirfenidone 1200 mg group) was 0.3 pg/mg and the “urine TGF-beta levels, decline over 12 months” value ([3]; pirfenidone 2400 mg group) was 0.1 pg/mg. For the same compound, the “eGFR Change, with imputation” value ([4]; 1200 mg) was 3.3 ± 8.5 ml/min/1.73 m^2, the “eGFR Change” value ([4]; 1200 mg) was 3.3 ± 8.5 ml/min/1.73 m^2 and the “eGFR Change, with imputation” value ([4]; 2400 mg) was −2.1 ± 6.4 ml/min/1.73 m^2. The “eGFR Change” value ([4]; 2400 mg) was −1.9 ± 6.7 ml/min/1.73 m^2, the “subjects who initiated hemodialysis during the study” value ([4]; pirfenidone 1200 mg group) was 0 and the “mean inter-group difference in eGFR change versus placebo” value ([4]; pirfenidone 1200 mg, baseline to end-of-study) was “+5.5 ml/min per 1.73 m^2”. The “difference in eGFR change versus placebo, baseline to month 6” value ([4]; pirfenidone 1200 mg, post-hoc two sample t-test) was 5.3 ml/min/1.73 m^2, the “eGFR change during the course of the study” value ([4]; pirfenidone 2400 mg/d, one year (54 weeks), mean±SD) was −1.9±6.7 ml/min per 1.73 m^2 and the “mean difference in eGFR change versus placebo” value ([4]; pirfenidone 2400 mg, baseline to end-of-study) was 0.3 ml/min per 1.73 m^2. The “share of subjects who tolerated the dose” value ([5]; 2400 mg/d, FSGS open label study) was “⅔”, the “reduction in the rate of estimated glomerular filtration rate (eGFR) decline” value ([5]; compared to the rate of decline before pirfenidone) was 25% and the “Change in IFN gamma” value ([6]; 1200, n = 14) was 0.1 ± 1.9 pg/mL. The “Change in Plasma TGF Beta” value ([6]; 1200, n = 14) was -2 ± 26 pg/mL, the “Change in TNF α” value ([6]; 1200, n = 14) was -0.8 ± 2.2 pg/mL and the “Change in YKL40” value ([6]; 1200, n = 14) was 6 ± 62 ng/mL. For the same compound, the “Change in BNP” value ([6]; 1200, n = 14) was −22 (−114, 24) pg/ml, the “Change in FGF23” value ([6]; 1200, n = 14) was −3 (−23, 33) RU/ml and the “Change in IL1” value ([6]; 1200, n = 14) was 0.0 (−0.3, 0.4) pg/ml. The “Change in S TNF R1” value ([6]; 1200, n = 14) was −140 (−497, 148) pg/ml, the “Change in IFN gamma” value ([6]; 2400, n = 14) was 0.2 ± 2.5 pg/mL and the “Change in Plasma TGF Beta” value ([6]; 2400, n = 14) was 7 ± 17 pg/mL. For the same compound, the “Change in TNF α” value ([6]; 2400, n = 14) was -0.7 ± 2.1 pg/mL, the “Change in YKL40” value ([6]; 2400, n = 14) was 30 ± 43 ng/mL and the “Change in BNP” value ([6]; 2400, n = 14) was 45 (−67, 312) pg/ml. For the same compound, the “Change in FGF23” value ([6]; 2400, n = 14) was 13 (−6, 63) RU/ml, the “Change in IL1” value ([6]; 2400, n = 14) was 0.0 (−0.2, 0.2) pg/ml and the “Change in S TNF R1” value ([6]; 2400, n = 14) was 197 (−113, 420) pg/ml. The “change of inflammatory plasma biomarkers with treatment” value ([6]; in vivo) was “none changed significantly”.
